This note sets out measurements from patent publication US11332430B1, “Pleuromulin lauric acid ester with antibacterial activity and a method of preparing the same” (priority 2021, dated 2022).

For one assay, the system named is MRSA-596. As to the kind of experiment: paper diffusion method drug sensitivity test, MRSA-596. The assay is classed as cell-based, Staphylococcus aureus. As to conditions: 30 μg/tablet, 37° C., 24 h, ≥17 mm sensitive, 15-16 mm intermediary, ≤14 mm drug resistance. As for the experimental part:
(§1) The antimicrobial efficacy was determined by a paper diffusion method drug sensitivity test.
(§2) Experimental strains: multi-resistant Staphylococcus aureus 171, multi-resistant Staphylococcus aureus 575, multi-resistant Staphylococcus aureus 596. The experimental strain was identified by Huashan Hospital Affiliated to Fudan University (Institute of Antibiotic of Fudan University).
(§3) Drug sensitive paper: The drug sensitive paper is a special drug sensitive paper with a diameter of 6.35 mm and a water absorption of 0.02 mL. The control was vancomycin (30 μg/tablet); the test compounds were pleuromulin (30 μg/tablet), lauric acid (30 μg/tablet) and pleuromulin lauric acid ester (30 μg/tablet).
(§4) The experimental strains were inoculated in non-selective medium and placed in air at 37° C. for 24 h. A single colony that grows well and inoculate it into broth medium was incubate at 35° C.±2° C. for 6 hours, and LA broth medium was used to calibrate the concentration of the bacterial solution to 0.5 Mie turbidimetric tube (1.5×10^8 CFU/mL). A bacterial suspension was obtained.
(§5) LB dry powder was weighed, sterilized at 103.4 Kpa, 121.3° C. high-pressure steam for 15 min, and then placed it in a 40° C.-50° C. water bath. A sterile empty plate (inner diameter 9 cm) was placed on the surface of the ultra-clean table water table, and […] was poured to the plate. The thickness of each plate was 3 mm to 4 mm. After the plate was cooled at room temperature, it was stored in the refrigerator at 2° C.-8° C. A sterile cotton swab was used to dip the bacterial solution and ti evenly coat the surface of the LB plate 3 times. After inoculation of the bacterial suspension, the LB plate was dried at room temperature for 3 min to 5 min. Sterile forceps were used to closely attach the antibacterial drug paper to the dish. The dish was put upside down and placed in a 37° C. incubator for 24 h. The results were observed by measuring the diameter. Taking 0.5% DMSO solution as a negative control, the antibacterial activity is expressed by the diameter of the inhibition zone. The inhibition zone ≥17 mm, sensitive; the inhibition zone of 15 mm-16 mm, intermediary; the inhibition zone ≤14 mm, drug resistance.

The next assay has as its system MRSA-206. The experiment in a line: paper diffusion method drug sensitivity test, MRSA-206. The assay is classed as cell-based, Staphylococcus aureus. As to conditions: 30 μg/tablet, 37° C., 24 h, ≥17 mm sensitive, 15-16 mm intermediary, ≤14 mm drug resistance.
In assay [1] the test system is multi-drug resistant Staphylococcus aureus 206, 575, 596. As to the kind of experiment: paper diffusion method drug sensitivity test, summary over the strains. The assay is classed as cell-based. Particulars: 30 μg/tablet. The procedure: as §1, §2, §3, §4, §5
Another assay concerns MRSA-575. The experiment in a line: paper diffusion method drug sensitivity test, MRSA-575. The assay is classed as cell-based, Staphylococcus aureus. Particulars: 30 μg/tablet, 37° C., 24 h, ≥17 mm sensitive, 15-16 mm intermediary, ≤14 mm drug resistance. The procedure: as §1, §2, §3, §4, §5
The mark [2] stands for this setting: listed as Pleuromutilin lauric acid derivative.

As for `CCCCCCCCCCCC(=O)O` [Laurie acid, Lauric acid], the Zone of inhibition in the assay on MRSA-596, in the assay with MRSA-206 and in the assay on MRSA-575 was 0 mm throughout. For the same molecule, in assay [1], the “inhibitory effect on drug-resistant bacteria (in words)” value (shortened to “inhibitory effect”) is recorded as “no inhibitory effect”.

In the case of `C=C[C@]1(C)C[C@@H](OC(=O)CO)[C@]2(C)[C@H](C)CC[C@]3(CCC(=O)[C@H]32)[C@@H](C)[C@@H]1O` [Pleuromulin], the Zone of inhibition with MRSA-596, with MRSA-206 and in the assay with MRSA-575 was 0 mm in each case. Further, the “inhibitory effect” value in assay [1] is reported as “no inhibitory effect”.

In the case of `C=C[C@]1(C)C[C@@H](OC(=O)COC(=O)CCCCCCCCCCC)[C@]2(C)CC[C@@H](C)[C@@]3(CCC(=O)[C@@H]23)[C@@H](C)[C@@H]1O` [Pleuromulinlauric acid ester, 2-(((3aS,4R,5S,6S,8R,9R,9aR,12R)-5-hydroxy-4,6,9,12-tetramethyl-1-oxo-6-vinyldecahydro-3a,9-propanocyclopenta[8]annulen-8-yl)oxy)-2-oxoethyl Dodecanoate], the Zone of inhibition in the assay on MRSA-596 was 12 mm; in the assay with MRSA-206 it was 13 mm; in the assay on MRSA-575, 25 mm; in the assay with MRSA-575 (setting [2]), “up to 25 mm”. The “inhibitory effect” value in assay [1] was “excellent antibacterial activity”; in assay [1] (setting [2]), “strong inhibitory effects”.

For the molecule `CN[C@H](CC(C)C)C(=O)N[C@H]1C(=O)N[C@@H](CC(N)=O)C(=O)N[C@H]2C(=O)N[C@H]3C(=O)N[C@H](C(=O)N[C@H](C(=O)O)c4cc(O)cc(O)c4-c4cc3ccc4O)[C@H](O)c3ccc(c(Cl)c3)Oc3cc2cc(c3O[C@@H]2O[C@H](CO)[C@@H](O)[C@H](O)[C@H]2O[C@H]2C[C@](C)(N)[C@H](O)[C@H](C)O2)Oc2ccc(cc2Cl)[C@H]1O` [Vancomycin], the Zone of inhibition in the assay on MRSA-596 came to 23 mm; in the assay with MRSA-206, 15 mm; in the assay on MRSA-575 it was 17 mm.
